Measurements: article PMC9225712, “Rational design of biodegradable sulphonamide candidates treating septicaemia by synergistic dual inhibition of COX-2/PGE2 axis and DHPS enzyme” (Journal of Enzyme Inhibition and Medicinal Chemistry, 2022)
Marks after values point to notes of the source that are not given here.

How the values were obtained:
[1] = system: Pseudomonas aeruginosa (RCMB 0100243); assay: Inhibition zone, agar cup diffusion; details: RCMB0100243, 24 h, read-out: inhibition zones (IZ) P.aeruginosa
[2] = system: Bacillus subtilis (RCMB 0100162); assay: Inhibition zone, agar cup diffusion; details: RCMB0100162, 24 h, read-out: inhibition zones (IZ) B. subtillis
gastric layers = assay: Gastric ulcerogenic activity; details: fasted male Wistar rats, oral 30 µmol/kg twice at 4 h interval
[3] = system: Salmonella typhi (RCMB 0100104); assay: Inhibition zone, agar cup diffusion; format: cell-based; details: Salmonella enterica, 24 h, read-out: inhibition zones (IZ) S. typhi
[4] = system: Gram-positive and Gram-negative bacteria; assay: In vitro antibacterial screening, whole panel; format: cell-based; details: whole bacterial panel, result in words
PGE2 = assay: Estimation of rat plasma PGE2; details: po 10 µmol/kg b.wt., 8 h after carrageenan; for % inhibition of PGE2-production: rat serum; for PGE2 serum conc.: rat, Mean ± SEM, n = 5
S. aureus Smith = details: for ED50: Staphylococcus aureus, in Mus musculus, read-out: ED50 against S. aureus infection; for ED50, protective effect against bacteremic infection, Staphylococcus aureus: mice, challenge dose 9.5x10^6 CFU/mouse ip, intragastric once a day for 7 days, survival
[5] = system: carrageenan-induced paw edoema; assay: Carrageenan-induced paw edoema in mice; details: for ED50: Mus musculus, 8 h, read-out: ED50 (95% confidence level); for Thickness of edoema 0h / percentage anti-inflammatory activity (AI%) 2h / Thickness of edoema 2h / percentage anti-inflammatory activity (AI%) 4h / Thickness of edoema 4h / percentage anti-inflammatory activity (AI%) 6h / Thickness of edoema 6h / Thickness of edoema 8h: mice, po 10 µmol/kg b.wt.; for Thickness of edoema 0h: 0 h (before carrageenan); for Thickness of edoema 0h / Thickness of edoema 2h / Thickness of edoema 4h / Thickness of edoema 6h / Thickness of edoema 8h: Mean ± SEM, n = 5; for Thickness of edoema 2h: 2 h after carrageenan; for Thickness of edoema 4h: 4 h after carrageenan; for Thickness of edoema 6h: 6 h after carrageenan; for Thickness of edoema 8h: 8 h after carrageenan
[6] = system: Escherichia coli (RCMB 010052); assay: Inhibition zone, agar cup diffusion; details: RCMB010052, 24 h, read-out: inhibition zones (IZ) E.coli
[7] = system: Staphylococcus aureus (RCMB 0100183); assay: Inhibition zone, agar cup diffusion; details: RCMB0100183, 24 h, read-out: inhibition zones (IZ) S. aureus
ovine COX-1 = target: T1, ovine COX-1 (Ovis aries, UniProt P05979); assay: In vitro COX-1 enzymatic assay (Cayman kit 560131); format: biochemical; details: Mean ± SEM of triplicate determinations
T1 construct: purchased Cayman Chemicals Inc. 560131
T1 sequence (P05979 25-600): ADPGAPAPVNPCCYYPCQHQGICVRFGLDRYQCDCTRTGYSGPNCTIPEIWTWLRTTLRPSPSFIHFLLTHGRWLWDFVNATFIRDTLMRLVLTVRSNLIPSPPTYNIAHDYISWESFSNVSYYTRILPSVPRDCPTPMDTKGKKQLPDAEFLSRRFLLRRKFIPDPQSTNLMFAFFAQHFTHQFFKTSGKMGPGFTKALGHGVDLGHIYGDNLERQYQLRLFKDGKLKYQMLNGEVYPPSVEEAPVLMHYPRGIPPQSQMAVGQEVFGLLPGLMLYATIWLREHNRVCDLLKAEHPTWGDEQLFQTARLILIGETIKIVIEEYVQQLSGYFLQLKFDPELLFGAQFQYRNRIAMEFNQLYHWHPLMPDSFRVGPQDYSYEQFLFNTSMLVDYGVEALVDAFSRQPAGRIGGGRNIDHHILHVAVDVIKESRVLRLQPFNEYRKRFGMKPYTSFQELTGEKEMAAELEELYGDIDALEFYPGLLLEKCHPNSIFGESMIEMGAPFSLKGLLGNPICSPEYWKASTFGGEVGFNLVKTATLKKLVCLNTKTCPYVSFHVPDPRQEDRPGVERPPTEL

[8] = system: Shigella dysenteriae (RCMB 0100542); assay: Inhibition zone, agar cup diffusion; format: cell-based; details: RCMB0100542, 24 h, read-out: inhibition zones (IZ) S. dysenteriae
human recombinant COX-2 = target: T2, human recombinant COX-2 (Homo sapiens, UniProt P35354); assay: In vitro COX-2 enzymatic assay (Cayman kit 560131); details: for SI COX-1/COX-2: COX-2 selectivity index: COX-1 IC50/COX-2 IC50
T2 sequence (P35354 18-604): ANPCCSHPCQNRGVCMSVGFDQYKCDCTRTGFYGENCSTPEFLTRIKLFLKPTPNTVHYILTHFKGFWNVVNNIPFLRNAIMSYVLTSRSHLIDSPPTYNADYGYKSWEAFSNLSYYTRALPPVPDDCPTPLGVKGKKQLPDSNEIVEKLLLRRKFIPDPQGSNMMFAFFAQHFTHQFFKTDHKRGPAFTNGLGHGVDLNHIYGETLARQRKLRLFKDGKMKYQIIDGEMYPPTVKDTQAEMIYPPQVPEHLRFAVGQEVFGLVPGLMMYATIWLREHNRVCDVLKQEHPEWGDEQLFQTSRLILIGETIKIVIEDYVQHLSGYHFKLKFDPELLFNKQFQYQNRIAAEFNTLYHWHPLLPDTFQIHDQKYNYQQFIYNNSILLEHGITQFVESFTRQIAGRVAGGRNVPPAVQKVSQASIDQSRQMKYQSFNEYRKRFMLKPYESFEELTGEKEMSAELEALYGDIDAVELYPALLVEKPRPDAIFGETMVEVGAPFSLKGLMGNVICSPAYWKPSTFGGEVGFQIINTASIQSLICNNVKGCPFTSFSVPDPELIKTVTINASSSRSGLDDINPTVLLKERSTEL

[9] = system: Staphylococcus epidermidis (RCMB 0100183); assay: Inhibition zone, agar cup diffusion; details: RCMB0100183, 24 h, read-out: inhibition zones (IZ) S. epidermidis
E. coli C11 = details: for ED50, protective effect against bacteremic infection, Escherichia coli: mice, challenge dose 7.1x10^3 CFU/mouse ip, intragastric once a day for 7 days, survival
[10] = system: Proteus vulgaris (RCMB 010085); assay: Inhibition zone, agar cup diffusion; details: RCMB010085, 24 h, read-out: inhibition zones (IZ) P. vulgaris
[11] = system: Streptococcus mutans (RCMB 0100172); assay: Inhibition zone, agar cup diffusion; details: RCMB0100172, 24 h, read-out: inhibition zones (IZ) S. mutans

Compound	zone of inhibition at 1000 µg/mL [1]	zone of inhibition at 1000 µg/mL [2]	Gastric ulcerogenic effect, histopathological examination of gastric layers (gastric layers)	zone of inhibition at 1000 µg/mL [3]	in vitro antibacterial activity [4]	% inhibition of PGE2-production (PGE2)	PGE2 serum conc. (PGE2)	ED50 (S. aureus Smith)	ED50, protective effect against bacteremic infection, Staphylococcus aureus (S. aureus Smith)	ED50 [5]	Thickness of edoema 0h [5]	percentage anti-inflammatory activity (AI%) 2h [5]	Thickness of edoema 2h [5]	percentage anti-inflammatory activity (AI%) 4h [5]	Thickness of edoema 4h [5]	percentage anti-inflammatory activity (AI%) 6h [5]	Thickness of edoema 6h [5]	Thickness of edoema 8h [5]	zone of inhibition at 1000 µg/mL [6]	zone of inhibition at 1000 µg/mL [7]	other results
O=C(c1cc(/N=N/c2ccc(S(=O)(=O)Nc3ncccn3)cc2)ccc1O)N1CCCCC1 [Compound 5j, 4-((4-Hydroxy-3-(piperidine-1-carbonyl)phenyl)diazenyl)-N-(pyrimidin-2-yl) benzenesulfonamide]	16 mm	19 mm	gastrointestinal safety profile	15 mm	weak in vitro antibacterial activity	83.25%	221.236 ± 4.62 pg/mL	302 µmol/kg	302.1 µmol/kg/day	10.9 µmol/kg	0.67 ± 0.02 mm	(15.79%)	0.80 ± 0.01^c mm	(51.39%)	0.70 ± 0.01^c mm	(70.73%)	0.60 ± 0.01^c mm	0.53 ± 0.01^c mm	14 mm	28 mm	IC50 (ovine COX-1): 12.2 ± 0.06 µM; zone of inhibition at 1000 µg/mL [8]: 25 mm; IC50 (human recombinant COX-2): 0.05 ± 0.0005 µM; SI COX-1/COX-2 (human recombinant COX-2): 239.2; zone of inhibition at 1000 µg/mL [9]: 30 mm; ED50 (E. coli C11; Escherichia coli, C11, in Mus musculus, read-out: ED50 against E.coli infection): 273 µmol/kg; ED50, protective effect against bacteremic infection, Escherichia coli (E. coli C11): 272.7 µmol/kg/day; zone of inhibition at 1000 µg/mL [10]: 17 mm; zone of inhibition at 1000 µg/mL [11]: 27 mm
O=C(c1cc(/N=N/c2ccc(S(=O)(=O)Nc3ncccn3)cc2)ccc1O)N1CCOCC1 [Compound 5n, 4-((4-Hydroxy-3-(morpholine-4-carbonyl)phenyl)diazenyl)-N-(pyrimidin-2-yl) benzenesulfonamide]	14 mm	17 mm	gastrointestinal safety profile	14 mm	weak in vitro antibacterial activity	55.18%	591.842 ± 5.96 pg/mL	353 to 413 µmol/kg	397.6 µmol/kg/day	14.4 µmol/kg	0.66 ± 0.004 mm	(-8.42%)	1.03 ± 0.03 mm	(10.42%)	1.29 ± 0.01 mm	(51.71%)	0.99 ± 0.05 mm	0.90 ± 0.01 mm	17 mm	16 mm	IC50 (ovine COX-1): 10.6 ± 0.08 µM; zone of inhibition at 1000 µg/mL [8]: 24 mm; IC50 (human recombinant COX-2): 0.07 ± 0.0005 µM; SI COX-1/COX-2 (human recombinant COX-2): 153.6; zone of inhibition at 1000 µg/mL [9]: 33 mm; ED50, protective effect against bacteremic infection, Escherichia coli (E. coli C11): 367.1 µmol/kg/day; zone of inhibition at 1000 µg/mL [10]: 18 mm; zone of inhibition at 1000 µg/mL [11]: 28 mm
Cc1ccnc(NS(=O)(=O)c2ccc(/N=N/c3ccc(O)c(C(=O)N4CCOCC4)c3)cc2)n1 [Compound 5o, 4-((4-Hydroxy-3-(morpholine-4-carbonyl)phenyl)diazenyl)-N-(4-methylpyrimidin-2-yl) benzenesulfonamide]	18 mm	20 mm	erosion in the gastric layers	18 mm	weak in vitro antibacterial activity	72.92%	357.636 ± 7.48 pg/mL	353 to 413 µmol/kg	352.7 µmol/kg/day	13.3 µmol/kg	0.65 ± 0.004 mm	(6.32%)	0.89 ± 0.01^c mm	(43.06%)	0.82 ± 0.02^c mm	(63.41%)	0.75 ± 0.02^c mm	0.64 ± 0.02^c mm	16 mm	21 mm	IC50 (ovine COX-1): 12.9 ± 0.05 µM; zone of inhibition at 1000 µg/mL [8]: 23 mm; IC50 (human recombinant COX-2): 0.06 ± 0.0008 µM; SI COX-1/COX-2 (human recombinant COX-2): 211.5; zone of inhibition at 1000 µg/mL [9]: 35 mm; ED50, protective effect against bacteremic infection, Escherichia coli (E. coli C11): 306.4 µmol/kg/day; zone of inhibition at 1000 µg/mL [10]: 19 mm; zone of inhibition at 1000 µg/mL [11]: 27 mm
